Test results: ChEMBL document CHEMBL1201862, “PubChem BioAssay data set” (2004)
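96-well plates; 48 h exposure; 5 concentrations. Endpoints by linear interpolation between flanking doses. Not reached: highest tested concentration assigned. At the GI50, growth is halved.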 Activity calls are given as the source filed them. Cut-off read from the data, not from the text of the source: active = GI50 up to about 1.1 µM and inactive = higher.

Columns and labels:
Assay in all cases: NCI-60 cell line screen, 48 h
[1] = tested on: MOLT-4
[2] = tested on: RXF 393
[3] = tested on: SNB-75
[4] = tested on: SF-295
[5] = tested on: DU-145
[6] = tested on: SW-620
[7] = tested on: SN12C
[8] = tested on: EKVX
[9] = tested on: HOP-62
[10] = tested on: U-251
[11] = tested on: SF-268
[12] = tested on: HCC 2998
[13] = tested on: NCI-H226
[14] = tested on: HCT-15
[15] = tested on: NCI-H460
[16] = tested on: MDA-N
[17] = tested on: KM12
[18] = tested on: TK-10
[19] = tested on: SF-539
[20] = tested on: HOP-92

Structure (SMILES)	GI50 [1]	GI50 [2]	GI50 [3]	GI50 [4]	GI50 [5]	GI50 [6]	GI50 [7]	GI50 [8]	GI50 [9]	GI50 [10]	GI50 [11]	GI50 [12]	GI50 [13]	GI50 [14] [µM]	GI50 [15]	GI50 [16]	GI50 [17]	GI50 [18]	GI50 [19]	GI50 [20]
Cn1c(N)c(/C=N/NC(=O)CC#N)c(=O)n(C)c1=O	> 100 µM (inactive)	> 100 µM (inactive)	> 100 µM (inactive)	> 100 µM (inactive)	> 100 µM (inactive)	> 100 µM (inactive)	> 100 µM (inactive)	> 100 µM (inactive)	> 100 µM (inactive)	> 100 µM (inactive)	> 100 µM (inactive)	> 100 µM (inactive)	> 100 µM (inactive)	> 100	> 100 µM (inactive)	> 100 µM (inactive)	> 100 µM (inactive)	> 100 µM (inactive)		
O=C(O)c1nc2cc(C(F)(F)F)ccc2[nH]c1=O	> 100 µM (inactive)			> 100 µM (inactive)	> 100 µM (inactive)	> 100 µM (inactive)	> 100 µM (inactive)	> 100 µM (inactive)	> 100 µM (inactive)	> 100 µM (inactive)	> 100 µM (inactive)	> 100 µM (inactive)	> 100 µM (inactive)	> 100	> 100 µM (inactive)	> 100 µM (inactive)	> 100 µM (inactive)	> 100 µM (inactive)	> 100 µM (inactive)	> 100 µM (inactive)
Cc1cc(OCc2nnc3sc(NC(=O)c4ccccc4)nn23)ccc1Cl	55.5 µM (inactive)	30.6 µM (inactive)		36.6 µM (inactive)	24.4 µM (inactive)	> 100 µM (inactive)	30.8 µM (inactive)	31.1 µM (inactive)	20.1 µM (inactive)	33.3 µM (inactive)	45 µM (inactive)	26.7 µM (inactive)	> 100 µM (inactive)	38.7	39.1 µM (inactive)		21.5 µM (inactive)	62.4 µM (inactive)	> 100 µM (inactive)	17.4 µM (inactive)
CCCCC1C=Cn2c(=O)oc3c(OC(C)C)c(OC(C)C)c(O)c1c32 (centres undefined)	6.1 µM (inactive)		13 µM (inactive)	18.5 µM (inactive)	14.8 µM (inactive)	13.9 µM (inactive)	20.5 µM (inactive)	29.9 µM (inactive)	20.7 µM (inactive)	16 µM (inactive)	18.5 µM (inactive)		14 µM (inactive)	14.6	15.4 µM (inactive)	20.9 µM (inactive)	14.4 µM (inactive)	16.3 µM (inactive)	23.6 µM (inactive)	14.3 µM (inactive)
Cc1[nH]n(C2=NCCN2)c(=O)c1Cc1ccccc1	> 100 µM (inactive)	> 100 µM (inactive)		> 100 µM (inactive)		> 100 µM (inactive)		> 100 µM (inactive)	> 100 µM (inactive)	> 100 µM (inactive)	> 100 µM (inactive)		> 100 µM (inactive)	> 100	> 100 µM (inactive)	> 100 µM (inactive)	> 100 µM (inactive)	> 100 µM (inactive)	> 100 µM (inactive)	> 100 µM (inactive)
CCOC(=O)P(=O)(O)c1ccc(N(C)Cc2ccccc2)cc1	> 100 µM (inactive)		> 100 µM (inactive)	> 100 µM (inactive)	> 100 µM (inactive)	> 100 µM (inactive)	> 100 µM (inactive)	> 100 µM (inactive)	> 100 µM (inactive)	> 100 µM (inactive)	> 100 µM (inactive)	> 100 µM (inactive)	> 100 µM (inactive)	> 100		> 100 µM (inactive)	> 100 µM (inactive)	> 100 µM (inactive)	> 100 µM (inactive)	> 100 µM (inactive)
O=[N+]([O-])c1cccc([N+](=O)[O-])c1Cl	3.56 µM (inactive)	17.7 µM (inactive)	30.3 µM (inactive)	16.1 µM (inactive)	2.86 µM (inactive)	17 µM (inactive)	23.4 µM (inactive)	20.3 µM (inactive)	23.5 µM (inactive)	11 µM (inactive)	19.4 µM (inactive)	1.47 µM (inactive)	27 µM (inactive)	12.1	23.3 µM (inactive)		11.1 µM (inactive)	21.9 µM (inactive)	17.9 µM (inactive)	18.8 µM (inactive)
C/C(=N\Nc1ccc([N+](=O)[O-])cc1[N+](=O)[O-])c1ccc2ccccc2n1	> 100 µM (inactive)	> 100 µM (inactive)	81.1 µM (inactive)	52.6 µM (inactive)	> 100 µM (inactive)	> 100 µM (inactive)	> 100 µM (inactive)	> 100 µM (inactive)		33.1 µM (inactive)	61 µM (inactive)		88.1 µM (inactive)	60.3	33 µM (inactive)	> 100 µM (inactive)	> 100 µM (inactive)	39.6 µM (inactive)	81.8 µM (inactive)	> 100 µM (inactive)
COc1ccc2[nH]c(CCNC(=O)c3cc([N+](=O)[O-])cc([N+](=O)[O-])c3)cc2c1	> 100 µM (inactive)	18.1 µM (inactive)	19.4 µM (inactive)		> 100 µM (inactive)	> 100 µM (inactive)	56 µM (inactive)		12.3 µM (inactive)	14.7 µM (inactive)	25 µM (inactive)		71.1 µM (inactive)	> 100	> 100 µM (inactive)	> 100 µM (inactive)	> 100 µM (inactive)	46.8 µM (inactive)	29.8 µM (inactive)	21.2 µM (inactive)
OCCSCCCSCCO	32.1 µM (inactive)		> 100 µM (inactive)	> 100 µM (inactive)	> 100 µM (inactive)	> 100 µM (inactive)	> 100 µM (inactive)	> 100 µM (inactive)	> 100 µM (inactive)	> 100 µM (inactive)	> 100 µM (inactive)	> 100 µM (inactive)		> 100	34.8 µM (inactive)	> 100 µM (inactive)	> 100 µM (inactive)	> 100 µM (inactive)	> 100 µM (inactive)	27.1 µM (inactive)
CCC(C)C(NC(=O)c1cccc2c(=O)c3ccccc3[nH]c12)C(=O)O (centres undefined)	82.6 µM (inactive)		78.7 µM (inactive)	83.4 µM (inactive)	> 100 µM (inactive)	> 100 µM (inactive)	> 100 µM (inactive)	> 100 µM (inactive)	> 100 µM (inactive)	73.5 µM (inactive)	87.5 µM (inactive)		> 100 µM (inactive)	> 100		> 100 µM (inactive)	61.1 µM (inactive)	> 100 µM (inactive)		94.4 µM (inactive)
COc1cc2ccc3c4ccccc4cnc3c2cc1OC	93.1 µM (inactive)	> 100 µM (inactive)	> 100 µM (inactive)	> 100 µM (inactive)		> 100 µM (inactive)	> 100 µM (inactive)	> 100 µM (inactive)	> 100 µM (inactive)	> 100 µM (inactive)	> 100 µM (inactive)	> 100 µM (inactive)	> 100 µM (inactive)	> 100	> 100 µM (inactive)		> 100 µM (inactive)	> 100 µM (inactive)	> 100 µM (inactive)	> 100 µM (inactive)
c1ccc(CNc2nncc3[nH]cnc23)cc1	> 100 µM (inactive)		> 100 µM (inactive)	> 100 µM (inactive)		> 100 µM (inactive)	> 100 µM (inactive)	> 100 µM (inactive)	> 100 µM (inactive)	> 100 µM (inactive)		> 100 µM (inactive)	> 100 µM (inactive)	> 100		> 100 µM (inactive)	> 100 µM (inactive)	> 100 µM (inactive)	> 100 µM (inactive)	69.8 µM (inactive)
O=[N+]([O-])c1cccc(-c2ncc3c(n2)-c2ccccc2C3)c1	> 100 µM (inactive)	95.1 µM (inactive)	23.1 µM (inactive)	54.3 µM (inactive)	> 100 µM (inactive)	> 100 µM (inactive)	> 100 µM (inactive)	94.4 µM (inactive)		93.8 µM (inactive)	51.6 µM (inactive)		> 100 µM (inactive)	> 100	> 100 µM (inactive)	> 100 µM (inactive)	> 100 µM (inactive)	47.1 µM (inactive)	> 100 µM (inactive)	> 100 µM (inactive)
COc1ccc(/N=N/c2c(O)ccc3ccccc23)cc1	> 100 µM (inactive)	41.2 µM (inactive)	16.4 µM (inactive)	12.9 µM (inactive)		86.1 µM (inactive)	> 100 µM (inactive)	14.3 µM (inactive)	13.8 µM (inactive)	15.8 µM (inactive)	16.1 µM (inactive)		17.7 µM (inactive)	57.8		> 100 µM (inactive)	12.1 µM (inactive)	17.1 µM (inactive)		19.6 µM (inactive)
CC(C)(CO)N1CCN(C(S)=Nc2ccccc2)CC1		> 100 µM (inactive)	> 100 µM (inactive)	> 100 µM (inactive)		> 100 µM (inactive)	> 100 µM (inactive)	> 100 µM (inactive)	> 100 µM (inactive)	> 100 µM (inactive)	> 100 µM (inactive)		> 100 µM (inactive)	> 100	> 100 µM (inactive)	> 100 µM (inactive)	> 100 µM (inactive)	> 100 µM (inactive)	> 100 µM (inactive)	> 100 µM (inactive)
